Assay results: patent US20190077809A1, “Spirocyclic Derivatives” (BASF SE, priority 2016, published 2019)

Legend:
Format in all cases: in vivo
Tetranychus kanzawai = assay: Red spider mite (Tetranychus kanzawai) sprayed cowpea bean test; settings: mites on sprayed cowpea beans, 72 hours after treatment, read-out: mortality in comparison with untreated controls
Method: The active compound was dissolved at the desired concentration in a mixture of 1:1 (vol:vol) distilled water:acetone. Add surfactant (Kinetic HV) was added at a rate of 0.01% (vol/vol).The test solution was prepared at the day of use.
Potted cowpea beans of 4-5 days of age were cleaned with tap water and sprayed with 1-2 ml of the test solution using air driven hand atomizer. The treated plants were allowed to air dry and afterwards inoculated with 30 or more mites by clipping a cassava leaf section from rearing population. Treated plants were placed inside a holding room at about 25-27° C. and about 50-60% relative humidity. Percent mortality was assessed 72 hours after treatment.

Halyomorpha halys = assay: Brown marmorated stink bug (Halyomorpha halys) sprayed peanut/soybean seed test; settings: 120 h, adult stage, sprayed cups with peanuts and soybean seeds, after 5 days, read-out: mortality in comparison with untreated controls
Method: The active compound was dissolved at the desired concentration in a mixture of 1:1 (vol:vol) distilled water:acetone. Surfactant (Kinetic HV) was added at a rate of 0.01% (vol/vol). The test solution was prepared at the day of use.
Row peanuts and soybean seeds were placed into microwavable plastic cups and inoculated with five adult stage H. halys. Using a hand atomizer, approximately 1 ml solution is sprayed into each cup, insects and food present. A water source was provided (cotton wick with water). Each treatment is replicated 4-fold. Assay arenas are kept at about 25° C. Percent mortality was recorded after 5 days.

Plutella xylostella = assay: Diamond back moth (Plutella xylostella) cabbage leaf-dip test; settings: 3rd instar larvae on dipped cabbage leaves, 72 hours after treatment, read-out: mortality in comparison with untreated controls
Method: The active compound was dissolved at the desired concentration in a mixture of 1:1 (vol:vol) distilled water:aceteone. Surfactant (Kinetic HV) was added at a rate of 0.01% (vol/vol).The test solution was prepared at the day of use.
Leaves of cabbage were dipped in test solution and air-dried. Treated leaves were placed in petri dishes lined with moist filter paper and inoculated with ten 3rd instar larvae. Mortality was recorded 72 hours after treatment. Feeding damages were also recorded using a scale of 0-100%.

Heliothis virescens = assay: Tobacco budworm (Heliothis virescens) insect diet/egg microtiter test; settings: 120 h, egg and larval mortality on sprayed insect diet, 5 days, read-out: mortality in comparison with untreated controls
Method: For evaluating control of tobacco budworm (Heliothis virescens) the test unit consisted of 96-well-microtiter plates containing an insect diet and 15-25 H. virescens eggs.
The compounds were formulated using a solution containing 75% v/v water and 25% v/v DMSO. Different concentrations of formulated compounds were sprayed onto the insect diet at 10 μl, using a custom built micro atomizer, at two replications.
After application, microtiter plates were incubated at about 28+1° C. and about 80+5% relative humidity for 5 days. Egg and larval mortality was then visually assessed.

Myzus persicae = assay: Green peach aphid (Myzus persicae) systemic test, artificial diet in microtiter plates; settings: 72 h, adult aphids on treated artificial diet, 3 days, read-out: mortality in comparison with untreated controls
Text: For evaluating control of green peach aphid (Myzus persicae) through systemic means the test unit consisted of 96-well-microtiter plates containing liquid artificial diet under an artificial membrane.
The compounds were formulated using a solution containing 75% v/v water and 25% v/v DMSO. Different concentrations of formulated compounds were pipetted into the aphid diet, using a custom built pipetter, at two replications.
After application, 5-8 adult aphids were placed on the artificial membrane inside the microtiter plate wells. The aphids were then allowed to suck on the treated aphid diet and incubated at about 23±1 ° C. and about 50±5% relative humidity for 3 days. Aphid mortality and fecundity was then visually assessed.

Dichromothrips corbetti = assay: Orchid thrips (dichromothrips corbetti) floral-immersion test; settings: adult thrips on dipped orchid petals, 72 hours after treatment, read-out: mortality in comparison with untreated controls
Method: Dichromothrips corbetti adults used for bioassay were obtained from a colony maintained continuously under laboratory conditions. For testing purposes, the test compound is diluted in a 1:1 mixture of acetone:water (vol:vol), plus Kinetic HV ata rate of 0.01% v/v.
Thrips potency of each compound was evaluated by using a floral-immersion technique. All petals of individual, intact orchid flowers were dipped into treatment solution and allowed to dry in Petri dishes. Treated petals were placed into individual re-sealable plastic along with about 20 adult thrips. All test arenas were held under continuous light and a temperature of about 28° C. for duration of the assay. After 3 days, the numbers of live thrips were counted on each petal. The percent mortality was recorded 72 hours after treatment.

Megoura viciae = assay: Vetch aphid (Megoura viciae) broad bean leaf disk test; settings: foliar, 120 h, adult aphids on sprayed broad bean leaf disks, 5 days, read-out: mortality in comparison with untreated controls
Method: For evaluating control of vetch aphid (Megoura viciae) through contact or systemic means the test unit consisted of 24-well-microtiter plates containing broad bean leaf disks.
The compounds were formulated using a solution containing 75% v/v water and 25% v/v DMSO. Different concentrations of formulated compounds were sprayed onto the leaf disks at 2.5 μl, using a custom built micro atomizer, at two replications.
After application, the leaf disks were air-dried and 5- 8 adult aphids placed on the leaf disks inside the microtiter plate wells. The aphids were then allowed to suck on the treated leaf disks and incubated at about 23±1° C. and about 50±5% relative humidity for 5 days. Aphid mortality and fecundity was then visually assessed.

Ceratitis capitata = assay: Mediterranean fruitfly (Ceratitis capitata) insect diet/egg microtiter test; settings: 120 h, egg and larval mortality on sprayed insect diet, 5 days, read-out: mortality in comparison with untreated controls
Method: For evaluating control of Mediterranean fruitfly (Ceratitis capitata) the test unit consisted of microtiter plates containing an insect diet and 50-80 C. capitata eggs.
(§1) The compounds were formulated using a solution containing 75% v/v water and 25% v/v DMSO. Different concentrations of formulated compounds were sprayed onto the insect diet at 5 μl, using a custom built micro atomizer, at two replications.
After application, microtiter plates were incubated at about 28±1° C. and about 80±5% relative humidity for 5 days. Egg and larval mortality was then visually assessed.

Nezara viridula = assay: Green soldier stink bug (Nezara viridula) sprayed soybean pod test; settings: 120 h, late 3rd instar on sprayed soybean pods, after 5 days, read-out: mortality in comparison with untreated controls
Method: The active compound was dissolved at the desired concentration in a mixture of 1:1 (vol:vol) distilled water:acetone. Surfactant (Kinetic HV) was added at a rate of 0.01% (vol/vol). The test solution was prepared at the day of use.Soybean pods were placed in glass Petri dishes lined with moist filter paper and inoculated with ten late 3rd instar N. vindula. Using a hand atomizer, approximately 2 ml solution is sprayed into each Petri dish. Assay arenas were kept at about 25° C. Percent mortality was recorded after 5 days.

Anthonomus grandis = assay: Boll weevil (Anthonomus grandis) insect diet/egg microtiter test; settings: 120 h, egg and larval mortality on sprayed insect diet, 5 days, read-out: mortality in comparison with untreated controls
Method: For evaluating control of boll weevil (Anthonomus grandis) the test unit consisted of 96-well-microtiter plates containing an insect diet and 5-10 A. grandis eggs.
as §1
After application, microtiter plates were incubated at about 25±1° C. and about 75±5% relative humidity for 5 days. Egg and larval mortality was then visually assessed.

Spodoptera eridania = assay: Southern armyworm (Spodoptera eridania) sprayed lima bean foliage test; settings: foliar, 96 h, larvae on sprayed lima bean plants, 4 days after treatment, read-out: mortality in comparison with untreated controls
Method: The active compounds were formulated in cyclohexanone as a 10,000 ppm solution supplied in tubes. The tubes were inserted into an automated electrostatic sprayer equipped with an atomizing nozzle and they served as stock solutions for which lower dilutions were made in 50% acetone:50% water (v/v). A nonionic surfactant (Kinetic®) was included in the solution at a volume of 0.01% (v/v).
Lima bean plants (variety Sieva) were grown 2 plants to a pot and selected for treatment at the 1st true leaf stage. Test solutions were sprayed onto the foliage by an automated electrostatic plant sprayer equipped with an atomizing spray nozzle. The plants were dried in the sprayer fume hood and then removed from the sprayer. Each pot was placed into perforated plastic bags with a zip closure. About 10 to 11 armyworm larvae were placed into the bag and the bags zipped closed. Test plants were maintained in a growth room at about 25° C. and about 20-40% relative humidity for 4 days, avoiding direct exposure to fluorescent light (24 hour photoperiod) to prevent trapping of heat inside the bags. Mortality and reduced feeding were assessed 4 days after treatment, compared to untreated control plants.

Nephotettix virescens = assay: Rice green leafhopper (Nephotettix virescens) sprayed rice seedling test; settings: adults on sprayed rice seedlings, after 72 hours, read-out: mortality in comparison with untreated controls
Method: Rice seedlings were cleaned and washed 24 hours before spraying. The active compounds were formulated in 1:1 acetone:water (vol:vol), and 0.01% vol/vol surfactant (Kinetic HV) was added. Potted rice seedlings were sprayed with 5-6 ml test solution, air dried, covered with Mylar cages cages and inoculated with 10 adults. Treated rice plants were kept at about 28-29° C. and relative humidity of about 50-60%. Percent mortality was recorded after 72 hours.

CCC(=O)N1CC2(C1)OCc1cc(C3=CCC(c4cc(Cl)c(F)c(Cl)c4)(C(F)(F)F)C3)ccc12 (centres unmarked) [Compound I-1-1, 1-[6-[4-(3,5-dichloro-4-fluoro-phenyl)-4-(trifluoromethyl)cyclopenten-1-yl]spiro[1H-isobenzofuran-3,3′-azetidine]-1′-yl]propan-1-one]
≥ 75%: mortality at 300 ppm (Tetranychus kanzawai) | mortality at 100 ppm (Halyomorpha halys) | mortality at 300 ppm (Plutella xylostella) | mortality at 2500 ppm (Heliothis virescens) | mortality at 2500 ppm (Myzus persicae) | mortality at 300 ppm (Dichromothrips corbetti) | mortality at 2500 ppm (Megoura viciae) | mortality at 2500 ppm (Ceratitis capitata) | mortality at 300 ppm (Nezara viridula) | mortality at 2500 ppm (Anthonomus grandis) | mortality at 10 ppm (Spodoptera eridania) | mortality at 300 ppm (Nephotettix virescens)

CC(=O)N1CC2(C1)OCc1cc(C3=CSC(c4cc(Cl)c(F)c(Cl)c4)(C(F)(F)F)C3)ccc12 (centres unmarked) [Compound I-2-2, 1-[6-[2-(3,5-dichloro-4-fluoro-phenyl)-2-(trifluoromethyl)-3H-thiophen-4-yl]spiro[1H-isobenzofuran-3,3′-azetidine]-1′-yl]ethanone]
≥ 75%: mortality at 300 ppm (Tetranychus kanzawai) | mortality at 100 ppm (Halyomorpha halys) | mortality at 300 ppm (Plutella xylostella) | mortality at 2500 ppm (Heliothis virescens) | mortality at 2500 ppm (Myzus persicae) | mortality at 300 ppm (Dichromothrips corbetti) | mortality at 2500 ppm (Megoura viciae) | mortality at 300 ppm (Nezara viridula) | mortality at 2500 ppm (Anthonomus grandis) | mortality at 10 ppm (Spodoptera eridania) | mortality at 300 ppm (Nephotettix virescens)
